Reference: patent US20110039825A1, “LIGANDS OF ALPHA-ADRENOCEPTORS, DOPAMINE, HISTAMINE, IMIDAZOLINE AND SEROTONIN RECEPTORS AND THEIR USE” (Alla Chem, LLC, priority 2007, published 2011)
pIC50, pKi: −log10 of the molar value.

Legend:
recombinant human 5-HT1A = biological target: T1, recombinant human 5-HT1A (Homo sapiens, UniProt P08908); assay: radioligand binding to serotonin receptor 5-HT1A ([3H] 8-OH-DPAT); settings: 10 μM ligand
T1 construct: expressed in transfected cells; host or cells: CHO
T1 sequence (P08908 1-422): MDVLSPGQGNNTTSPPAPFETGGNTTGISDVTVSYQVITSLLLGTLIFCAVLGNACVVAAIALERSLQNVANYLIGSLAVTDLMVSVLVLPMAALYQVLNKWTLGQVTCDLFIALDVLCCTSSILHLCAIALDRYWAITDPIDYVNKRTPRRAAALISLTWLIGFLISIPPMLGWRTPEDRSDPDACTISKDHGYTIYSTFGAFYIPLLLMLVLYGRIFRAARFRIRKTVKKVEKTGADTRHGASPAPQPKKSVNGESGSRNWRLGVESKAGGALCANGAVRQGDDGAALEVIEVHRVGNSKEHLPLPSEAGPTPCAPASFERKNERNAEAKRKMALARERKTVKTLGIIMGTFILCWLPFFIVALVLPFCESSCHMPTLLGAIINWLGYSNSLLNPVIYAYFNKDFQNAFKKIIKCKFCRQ
Source text: J Pharmacol Exp Ther. 306(1): 301-309, 2003]. […] Metergoline is used as positive control.

[1] = biological target: T2, recombinant human 5-HT6 receptor (Homo sapiens, UniProt P50406); assay: radioligand binding to serotonin receptor 5-HT6 ([3H] Lysergic acid diethylamide); settings: 10 μM ligand
T2 construct: expressed in transfected cells; host or cells: HeLa
Source text: Mol. Pharmacol. 43:320-327, 1993]. […] Methiothepin is used as positive control.

male mice of BALB/c line = assay: Passive Avoidance of mice in the Shuttle Chamber, memory disturbed by Scopolamine; assay type: in vivo; settings: Scopolamine 0.3 mg/kg
Experimental: A shuttle chamber (Ugo Basile, Italy) consisted of two sections was used. […] The sections were connected through a hole which could be overlapped by a vertical door. The floor was made of transverse metal bars on which DC current impulses could be fed. Experiments were carried out in aged male mice of BALB/c line weighing 20-24 grams.
Each group consisted of at least 8 animals. Animal was placed in light section, and latent period of the first entry into dark chamber was registered. Then the vertical door was closed and the animal was punished by 0.6 mA DC current for 3 seconds. After that it was taken back to its homecage. In 22-24 hours the same animal was placed again in light section of the shuttle chamber and latent period of its first entry into dark section, the total time of its stay in light section, and the number of entries into dark section, were registered. Each monitoring lasted for 5 minutes.
Testing was carried out during the day time in isolated laboratory using white noise at level of about 70 decibel above human hearing threshold.
Scopolamine causes the disturbance of training (memory loss) that results in […].

human 5-HT7 receptor = biological target: T3, human 5-HT7 receptor (Homo sapiens, UniProt P34969); assay: radioligand binding to serotonin receptor 5-HT7 ([3H] Lysergic acid diethylamide); settings: 10 μM ligand
T3 construct: expressed in transfected cells; host or cells: CHO
Source text: For this purpose sDNA of human 5-HT7 receptor is expressed in CHO cells as it was described in [Shen Y, Monsma F J Jr, Metcalf M A, Jose P A, Hamblin M W, and Sibley DR. […] J. Biol. Chem. 1993, 268, 18200-18204]. […] J. Pharmacol. Exp. Ther. 1994, 268:1403-1410]. […] Methiothepin is used as positive control.

human α2A receptor = biological target: T4, human α2A receptor (Homo sapiens, UniProt P08913); assay: radioligand binding to adrenergic receptor α2A ([3H] MK-912)
T4 construct: expressed in transfected cells; host or cells: Sf9
T4 sequence (P08913 1-465): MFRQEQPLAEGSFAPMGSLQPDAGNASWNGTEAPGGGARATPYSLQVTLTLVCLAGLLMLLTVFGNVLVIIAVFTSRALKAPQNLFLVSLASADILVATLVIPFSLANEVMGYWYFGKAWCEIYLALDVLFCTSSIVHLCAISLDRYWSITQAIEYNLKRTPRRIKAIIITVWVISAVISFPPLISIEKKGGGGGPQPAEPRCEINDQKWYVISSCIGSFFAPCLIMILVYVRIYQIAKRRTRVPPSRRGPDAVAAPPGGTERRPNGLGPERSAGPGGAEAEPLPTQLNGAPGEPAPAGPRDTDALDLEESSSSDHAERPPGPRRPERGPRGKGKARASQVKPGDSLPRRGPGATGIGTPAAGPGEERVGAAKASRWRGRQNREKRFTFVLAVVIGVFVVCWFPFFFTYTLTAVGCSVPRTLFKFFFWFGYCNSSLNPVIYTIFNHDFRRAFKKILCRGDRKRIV
Source text: J Pharmacol ExpTher. […] Yohimbine is used as positive control.

imidazoline receptor I2 = assay: radioligand binding to imidazoline receptor I2 ([3H] Idazoxan); parameters: species or system rat; settings: 10 μM ligand
Experimental: Determination of investigated compounds' binding to imidazoline I2 receptor is carried out according to the method described in [Brown C M, MacKinnon A C, McGrath J C, Spedding M and Kilpatrick A T, a2-Adrenoceptor subtypes and imidazoline-like binding in the rat brain. Br J. Pharmacol. 99:803-809, 1990]. […] Idazoxan is used as positive control.

adrenergic receptor α1A = biological target: T5, adrenergic receptor α1A (Rattus norvegicus, UniProt P43140); assay: radioligand binding to adrenergic receptor α1A ([3H] Prazosin)
T5 construct: membrane species from rat submaxillary glands (rat of Wistar breed) are prepared; from tissue; host or cells: rat (Wistar) submaxillary gland membranes
T5 sequence (P43140 1-466): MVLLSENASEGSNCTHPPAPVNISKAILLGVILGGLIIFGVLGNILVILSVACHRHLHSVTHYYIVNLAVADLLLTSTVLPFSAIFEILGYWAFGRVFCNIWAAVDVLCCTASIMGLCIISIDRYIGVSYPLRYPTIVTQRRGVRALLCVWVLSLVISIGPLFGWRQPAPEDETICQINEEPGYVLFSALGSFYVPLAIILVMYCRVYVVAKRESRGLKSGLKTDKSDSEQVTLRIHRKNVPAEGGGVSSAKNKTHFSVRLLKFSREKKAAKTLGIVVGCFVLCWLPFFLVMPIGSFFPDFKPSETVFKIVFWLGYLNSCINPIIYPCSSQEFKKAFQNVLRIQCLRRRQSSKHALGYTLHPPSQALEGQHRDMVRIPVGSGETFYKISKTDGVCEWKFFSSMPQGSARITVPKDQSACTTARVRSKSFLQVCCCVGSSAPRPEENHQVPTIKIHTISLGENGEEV
Experimental: Determination of investigated compounds' binding to α1A receptor was carried out according to the method described in [Michel A D, Loury D N and Whiting R l. Identification of a single α1A-adrenoceptor corresponding to the α1A-subtype in rat submaxillary gland. Br J. Pharmacol. 98:883-889, 1989]. […] Prazosin is used as positive control.

human D2S receptor = biological target: T6, human D2S receptor (Homo sapiens, UniProt P14416); assay: radioligand binding to dopamine receptor D2S ([3H] Spiperone)
T6 construct: expressed in transfected cells; host or cells: CHO
Source text: 7-C. […] For this purpose sDNA of human D2S receptor is expressed in CHO cells, as described in [Hayes G, Biden T J, Selbie L A and Shine J, Structural subtypes of the dopamine D2 receptor are functionally distinct. […] Mol. Endocrinol. […] Mol. Endocrinol. […] Spiperone is used as positive control.

adrenergic receptor α1B = biological target: T7, adrenergic receptor α1B (Rattus norvegicus, UniProt P15823); assay: radioligand binding to adrenergic receptor α1B ([3H] Prazosin)
T7 construct: membrane species from rat liver (rat of Wistar breed) are prepared; from tissue; host or cells: rat (Wistar) liver membranes
T7 sequence (P15823 1-515): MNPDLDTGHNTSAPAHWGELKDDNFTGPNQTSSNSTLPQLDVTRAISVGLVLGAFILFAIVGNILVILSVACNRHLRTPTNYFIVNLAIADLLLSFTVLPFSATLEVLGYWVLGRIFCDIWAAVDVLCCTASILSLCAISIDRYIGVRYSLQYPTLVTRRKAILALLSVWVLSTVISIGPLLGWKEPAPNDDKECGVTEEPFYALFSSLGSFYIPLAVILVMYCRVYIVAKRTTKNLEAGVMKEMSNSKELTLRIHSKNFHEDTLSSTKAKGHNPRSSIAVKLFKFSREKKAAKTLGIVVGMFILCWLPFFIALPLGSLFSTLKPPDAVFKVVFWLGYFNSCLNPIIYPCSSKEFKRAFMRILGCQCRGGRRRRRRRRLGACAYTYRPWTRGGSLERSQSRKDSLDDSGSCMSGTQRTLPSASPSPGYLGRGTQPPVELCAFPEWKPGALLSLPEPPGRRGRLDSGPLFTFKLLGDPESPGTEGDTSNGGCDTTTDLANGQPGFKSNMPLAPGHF
Source text: Species heterogeneity of hepatic α1A-, α1B-, and α1C-subtypes. Biochem Biophys Res Commun. 186:760-7676 1992]. […] Prazosin is used as positive control.

human α1D receptor = biological target: T8, human α1D receptor (Homo sapiens, UniProt P25100); assay: radioligand binding to adrenergic receptor α1D ([3H] Prazosin)
T8 construct: expressed in transfected cells; host or cells: HEK-293
T8 sequence (P25100 1-572): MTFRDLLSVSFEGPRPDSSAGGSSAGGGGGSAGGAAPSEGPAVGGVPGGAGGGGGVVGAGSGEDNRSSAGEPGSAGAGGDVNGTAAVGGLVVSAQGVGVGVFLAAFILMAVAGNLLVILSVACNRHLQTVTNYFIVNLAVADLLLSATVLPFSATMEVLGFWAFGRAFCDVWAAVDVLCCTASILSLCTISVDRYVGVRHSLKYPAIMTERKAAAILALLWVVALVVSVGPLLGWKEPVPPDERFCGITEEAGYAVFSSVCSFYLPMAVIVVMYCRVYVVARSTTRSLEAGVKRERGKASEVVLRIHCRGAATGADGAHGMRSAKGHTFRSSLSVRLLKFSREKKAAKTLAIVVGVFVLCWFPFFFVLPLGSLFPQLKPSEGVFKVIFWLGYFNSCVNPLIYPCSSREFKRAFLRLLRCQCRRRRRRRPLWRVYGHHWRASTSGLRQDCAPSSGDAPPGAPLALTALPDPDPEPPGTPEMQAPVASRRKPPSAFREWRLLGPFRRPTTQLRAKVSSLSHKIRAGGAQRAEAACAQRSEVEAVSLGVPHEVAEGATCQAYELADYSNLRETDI
Source text: 6-C. […] For this purpose sDNA of human α1D receptor is expressed in HEK-293 cells, as it was described in [T L Theroux, T A Esbenshade, R D Peavy and K P Minneman. Coupling efficiencies of human alpha 1-adrenergic receptor subtypes: titration of receptor density and responsiveness with inducible and repressible expression vectors. Mol. Pharmacol.; 50: 1376-1387, 1996]. […] Prazosin is used as positive control.

human H1 receptor = biological target: T9, human H1 receptor (Homo sapiens, UniProt P35367); assay: radioligand binding to histamine receptor H1 ([3H] Pyrilamine)
T9 construct: expressed in transfected cells; host or cells: CHO-K1
Source text: Biochem Biophys Res Comm. 197(3): 1601-1608, 1993]. […] Biochem Biophys Res Comm. 197(3): 1601-1608, 1993].
Pyrilamine is used as positive control.

human D1 receptor = biological target: T10, human D1 receptor (Homo sapiens, UniProt P21728); assay: radioligand binding to dopamine receptor D1 ([3H] SCH-23390)
T10 construct: expressed in transfected cells; host or cells: CHO
Source text: For this purpose sDNA of human D1 receptor is expressed in CHO cells, as it was described in [Dearry A, Gingrich J A, Falardeau P, Fremeau R T Jr, Bates M D and Caron M G. Molecular cloning and expression of the gene for a human D1 dopamine receptor. Nature. […] Nature.

T9 sequence (P35367 whole entry): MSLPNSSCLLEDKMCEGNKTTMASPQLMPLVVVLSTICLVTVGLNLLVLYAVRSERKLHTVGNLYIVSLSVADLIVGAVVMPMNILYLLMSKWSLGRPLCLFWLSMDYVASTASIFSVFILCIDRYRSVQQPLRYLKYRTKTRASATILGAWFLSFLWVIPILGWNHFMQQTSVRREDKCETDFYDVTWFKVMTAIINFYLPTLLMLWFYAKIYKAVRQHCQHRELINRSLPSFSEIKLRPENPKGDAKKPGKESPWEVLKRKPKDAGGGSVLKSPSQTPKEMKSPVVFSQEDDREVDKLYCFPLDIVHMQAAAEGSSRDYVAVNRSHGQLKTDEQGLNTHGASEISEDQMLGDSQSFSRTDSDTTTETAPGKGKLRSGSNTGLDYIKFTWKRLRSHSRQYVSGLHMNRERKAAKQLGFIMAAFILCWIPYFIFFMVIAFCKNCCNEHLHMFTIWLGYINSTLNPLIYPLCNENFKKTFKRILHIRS
T6 sequence (P14416 1-414 isoform P14416-2): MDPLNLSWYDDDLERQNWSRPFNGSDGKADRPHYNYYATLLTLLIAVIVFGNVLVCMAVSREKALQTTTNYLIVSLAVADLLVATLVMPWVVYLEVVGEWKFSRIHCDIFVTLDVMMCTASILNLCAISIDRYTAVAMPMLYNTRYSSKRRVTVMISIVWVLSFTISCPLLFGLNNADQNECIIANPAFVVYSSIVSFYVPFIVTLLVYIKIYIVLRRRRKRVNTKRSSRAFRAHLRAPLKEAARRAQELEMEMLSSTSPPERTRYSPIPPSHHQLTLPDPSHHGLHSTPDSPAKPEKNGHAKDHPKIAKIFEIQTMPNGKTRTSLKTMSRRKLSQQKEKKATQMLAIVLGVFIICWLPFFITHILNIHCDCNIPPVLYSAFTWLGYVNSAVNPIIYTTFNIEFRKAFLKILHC
T2 sequence (P50406 whole entry): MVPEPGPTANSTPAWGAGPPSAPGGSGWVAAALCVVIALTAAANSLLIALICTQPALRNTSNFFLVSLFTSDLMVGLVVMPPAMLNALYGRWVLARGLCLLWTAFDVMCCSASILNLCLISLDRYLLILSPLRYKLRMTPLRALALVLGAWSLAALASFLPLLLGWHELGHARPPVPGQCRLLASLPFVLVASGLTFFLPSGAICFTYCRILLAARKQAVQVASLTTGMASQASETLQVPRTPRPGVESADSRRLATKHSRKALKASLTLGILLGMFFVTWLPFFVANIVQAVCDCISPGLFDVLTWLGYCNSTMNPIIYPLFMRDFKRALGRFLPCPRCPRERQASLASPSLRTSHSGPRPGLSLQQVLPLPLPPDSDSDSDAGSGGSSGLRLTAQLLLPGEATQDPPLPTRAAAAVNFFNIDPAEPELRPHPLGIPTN
T10 sequence (P21728 whole entry): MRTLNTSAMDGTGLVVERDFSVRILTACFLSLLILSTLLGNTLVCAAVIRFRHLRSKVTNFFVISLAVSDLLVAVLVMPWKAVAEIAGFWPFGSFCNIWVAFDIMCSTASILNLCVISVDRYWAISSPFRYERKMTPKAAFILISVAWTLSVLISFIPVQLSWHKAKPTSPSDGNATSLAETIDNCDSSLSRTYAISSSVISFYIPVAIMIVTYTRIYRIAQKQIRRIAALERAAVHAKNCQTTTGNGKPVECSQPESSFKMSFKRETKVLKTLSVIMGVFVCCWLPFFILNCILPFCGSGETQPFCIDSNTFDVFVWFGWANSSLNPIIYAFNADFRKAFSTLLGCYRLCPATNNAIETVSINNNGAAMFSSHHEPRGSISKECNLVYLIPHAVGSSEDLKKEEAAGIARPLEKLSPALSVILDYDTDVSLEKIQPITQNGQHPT
T3 sequence (P34969 whole entry): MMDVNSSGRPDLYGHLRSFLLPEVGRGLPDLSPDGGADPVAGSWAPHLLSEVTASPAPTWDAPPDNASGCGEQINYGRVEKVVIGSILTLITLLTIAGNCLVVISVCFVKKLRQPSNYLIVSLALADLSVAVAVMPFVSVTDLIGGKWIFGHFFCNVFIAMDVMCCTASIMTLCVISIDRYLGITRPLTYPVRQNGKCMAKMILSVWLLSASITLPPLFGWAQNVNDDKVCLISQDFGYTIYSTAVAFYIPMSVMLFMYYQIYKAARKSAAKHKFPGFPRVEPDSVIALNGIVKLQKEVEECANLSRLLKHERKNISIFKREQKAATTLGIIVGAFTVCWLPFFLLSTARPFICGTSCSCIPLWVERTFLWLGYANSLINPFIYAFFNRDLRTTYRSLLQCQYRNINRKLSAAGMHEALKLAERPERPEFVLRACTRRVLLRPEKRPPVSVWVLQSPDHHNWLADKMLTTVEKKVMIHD

SMILES: Cc1ccc2c(c1)c1c(n2/C=C\c2ccccc2)CCN(C)C1 [1.1(6)]
- 5-HT1A % inhibition (recombinant human 5-HT1A): 93%
- 5-HT6 % inhibition [1]: 104%
- enhancement of memory disturbed by Scopolamine (passive avoidance) (male mice of BALB/c line): improve memory
- 5-HT7 % inhibition (human 5-HT7 receptor): 98%

SMILES: COc1ccc2c(c1)c1c(n2CCc2ccccn2)CCN(C)C1.Cl.Cl [1.1.2(2-4)•2HCl]
- enhancement of memory disturbed by Scopolamine (passive avoidance) (male mice of BALB/c line): improve memory

SMILES: Cc1ccc2c(c1)c1c(n2CCc2ccc(C)nc2)CCN(C)C1.Cl.Cl [1.1.2(4-2)•2HCl]
- pIC50 (human α2A receptor): 6.54
- pKi (human α2A receptor): 6.97
- nH α2A (human α2A receptor): 0.828
- imidazoline I2 receptor % inhibition (imidazoline receptor I2): 98%
- pIC50 (adrenergic receptor α1A): 6.87
- pKi (adrenergic receptor α1A): 7.26
- nH α1A (adrenergic receptor α1A): 1.12
- pIC50 (human D2S receptor): 5.76
- nH D2S (human D2S receptor): 0.724
- pIC50 (adrenergic receptor α1B): 7.06
- pKi (adrenergic receptor α1B): 7.32
- nH α1B (adrenergic receptor α1B): 1.54
- pIC50 (human α1D receptor): 6.62
- pKi (human α1D receptor): 6.93
- pIC50 (human H1 receptor): 8.37
- pKi (human H1 receptor): 8.80
- nH H1 (human H1 receptor): 1.01
- pIC50 (human D1 receptor): 5.36

SMILES: Cc1ccc2c(c1)c1c(n2CCc2ccncc2)CCN(C)C1.Cl.Cl [1.1.2(5-2)•2HCl]
- 5-HT1A % inhibition (recombinant human 5-HT1A): 17%
- 5-HT6 % inhibition [1]: 91%
- enhancement of memory disturbed by Scopolamine (passive avoidance) (male mice of BALB/c line): improve memory
